Measurements reported in patent US8084596B2, “Regulated apoptosis” (The Board of Trustees of the Leland Stanford Junior …, priority 1993, dated 2011).

Tests used:
NFAT = NFAT reporter (secreted alkaline phosphatase) after cross-linking chimeric receptor TAC/TAC/Z with anti-TAC mAb in TAg Jurkat cells; assay type: cell-based, human; settings: addition of 1 ng/ml FK506; TTZ receptor, bound anti-TAC mAb
Source text: The plasmid pSXNeo/IL2 (IL2-SX) (FIG. 1), which contains the placental secreted alkaline phosphatase gene under the control of human IL-2 promoter (−325 to +47; MCB(86) 6, 3042), and related plasmid variants (i.e. NFAT-SX, NF B-SX, OAP/Oct1-SX, and AP-1-SX) in which the reporter gene is under the transcriptional control of the minimal IL-2 promoter (−325 to −294 and -72 to −47) combined with synthetic oligomers containing various promoter elements (i.e. NFAT, NKB, OAP/Oct-1, and AP1, respectively), were made by three piece ligations of 1) pPL/SEAP (Berger, et al., Gene (1988) 66, 1) cut with SspI and HindIII; 2) pSV2/Neo (Southern and Berg, J. Mol. Appl. Genet. (1982) 1, 332) cut with NdeI, blunted with Klenow, then cut with Pvul; and 3) various promoter-containing plasmids (i.e. NFAT-CD8, B-CD8, cx121acZ-Oct-1, AP1-LUCIF3H, or cx151L2) described below) cut with PvuI and HindIII, NFAT-CD8 contains 3 copies of the NFAT-binding site (−286 to […]; Genes and Dev. (1990) 4, 1823) and cx12lacZ-Oct contains 4 copies of the OAP/Oct-1(ARRE-1) binding site (MCB, (1988) 8, 1715) from the human IL-2 enhancer; B-CD8 contains 3 copies of the NFB binding site from the murine light chain (EMBO (1990) 9, 4425) and AP1-LUCIF3H contains 5 copies of the AP-1 site (5′-TGA-[…]-3′ [SEQ ID NO:3]) from the metallothionen promoter. […]

MZF3E [1] = biological target: T1, MZF3E (Mus musculus, UniProt P24161); test: NFAT-SEAP reporter via myristoylated chimeric CD3/FKBP12 (MZF3E) receptor in Jurkat T cells; assay type: cell-based, human
T1 construct: expressed in transfected cells
T1 sequence (P24161 with tags, fused parts or gaps limits assumed): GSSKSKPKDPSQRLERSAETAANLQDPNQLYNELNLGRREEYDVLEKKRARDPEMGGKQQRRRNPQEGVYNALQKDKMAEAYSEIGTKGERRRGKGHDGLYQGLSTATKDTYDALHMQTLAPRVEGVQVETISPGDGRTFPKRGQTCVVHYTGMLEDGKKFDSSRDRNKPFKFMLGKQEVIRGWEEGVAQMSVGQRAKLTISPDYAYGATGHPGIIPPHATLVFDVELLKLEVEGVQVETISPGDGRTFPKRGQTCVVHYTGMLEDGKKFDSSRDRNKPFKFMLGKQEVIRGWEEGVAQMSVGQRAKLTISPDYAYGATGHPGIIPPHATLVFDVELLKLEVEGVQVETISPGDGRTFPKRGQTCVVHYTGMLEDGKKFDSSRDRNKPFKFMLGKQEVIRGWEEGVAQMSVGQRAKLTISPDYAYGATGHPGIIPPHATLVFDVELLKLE

[2] = Immunosuppression / toxicity in cell culture; assay type: cell-based
[3] = tested on: GF2E or GF3E with NF3V1E (G5E4TCAT reporter); test: Transcriptional induction: CAT activity in Jurkat TAg cells transfected with GAL4-FKBP and FKBP-VP16 chimeras; assay type: cell-based, human; settings: 1 μM ligand, 12 hours; samples 5 (GF2E, NF3V1E) and 6 (GF3E, NF3V1E) in the presence of ligand
Sequence of GF2E or GF3E with NF3V1E (G5E4TCAT reporter) (P62942 2-108 limits assumed): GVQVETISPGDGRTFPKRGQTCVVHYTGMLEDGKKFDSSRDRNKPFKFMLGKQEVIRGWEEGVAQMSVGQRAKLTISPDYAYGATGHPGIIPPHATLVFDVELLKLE
Experimental: Jurkat TAg cells were transfected with the indicated constructs (5 μg of each construct) by electroporation (960 μF, 250 v). After 24 hours, the cells were resuspended in fresh media and aliquoted. […] After 12 hours, the cells were washed and cellular extracts were prepared by repeated freeze-thaw. Chloramphenicol acetyltransferase (CAT) activity was measured by standard protocols. Molecular Cloning: A Laboratory Manual, Sambrook et al. eds. (1989) CSH Laboratory, pp. 16-59 ff. […]

MZF3E [4] = biological target: T1, MZF3E; test: Protein-tyrosine phosphorylation and kinase recruitment in Jurkat cells stably transfected with MZF3E; assay type: cell-based, human
Experimental: Tyrosine phosphorylation after treatment of cells with either anti-CD3 MAb or FK1012 was detected using monoclonal alpha-phosphotyrosine antibodies. Whole cell lysates were analysed at varying times after stimulation.

MZF3Eflu / MZF3Eflag = test: Coimmunoprecipitation of epitope-tagged chimeras (anti-Flag agarose) in Jurkat T cells; assay type: cell-based, human
Sequence of MZF3Eflu / MZF3Eflag (P62942 2-108 limits assumed): as above

TAg-Jurkat cells = test: Inhibitory activity of drugs on ionomycin/PMA-stimulated TAg-Jurkat cells (β-galactosidase, MUG fluorescence); assay type: cell-based, human
Experimental: Ionomycin (1 μm) and PMA (25 ng/ml) were added to 10^5 TAg-Jurkat cells. In addition, titrations of the various drugs were added. After 5 hours the cells were lysed in mild detergent (i.e. Triton X-100) and the extracts were incubated with the β-galactosidase substrate, MUG (methyl galactosidyl umbelliferone) for 1 hour. A glycine/EDTA stop buffer was added and the extracts assayed for fluorescence. Each data point obtained was the average of two samples and the experiment was performed several times with similar results.

C=CC[C@@H]1/C=C(\C)C[C@H](C)C[C@H](OC)[C@H]2O[C@@](O)(C(=O)C(=O)N3CCCC[C@H]3C(=O)O[C@H](/C(C)=C/[C@@H]3CC[C@@H](O)[C@H](OC)C3)[C@H](C)[C@@H](O)CC1=O)[C@H](C)C[C@@H]2OC [FK506, reference compound]
alkaline phosphatase reporter activity due to NFAT (NFAT): dropped all activity due to NFAT to background levels | FK1012B stimulation of NFAT reporter (MZF3E [1]; addition of 1 ng/ml FK506): dropped all stimulations to near background levels

CO[C@H]1C[C@@H](C)C/C(C)=C/[C@@H](CCOC(=O)NCc2ccccc2)C(=O)C[C@H](O)[C@@H](C)[C@@H](/C(C)=C/[C@@H]2CC[C@@H](O)[C@H](OC)C2)OC(=O)[C@@H]2CCCCN2C(=O)C(=O)[C@]2(O)O[C@H]1[C@@H](OC)C[C@H]2C [FK506-M]
termination of FK1012-induced signaling (deaggregation) (MZF3E [1]): FK1012-induced signaling can be terminated | toxicity [2]: nontoxic

FK1012-A (p-xylylenediamine bridge) [FK1012A]
CAT activity [3]: CAT activity present as expected | recruitment of kinase activity to the zeta-chain (in vitro kinase assay after immunoprecipitation) (MZF3E [4]): resulted in the recruitment of kinase activity to the zeta-chain | dimerization of FKBP monomer constructs MZF1Eflu and MZF1Eflag (MZF3Eflu / MZF3Eflag): also dimerized by FK1012A | coimmunoprecipitation of MZF3Eflu with MZF3Eflag (MZF3Eflu / MZF3Eflag; 1 μM, Jurkat T cells coexpressing both chimeras): MZF3Eflag interacts with MZF3Eflu and is coimmunoprecipitated

FK1012-B (diaminodecane-1,10 bridge) [FK1012B]
stimulation by the compound itself (TAg-Jurkat cells; control experiment): not stimulatory by itself | mitogen activity (TAg-Jurkat cells; ionomycin 1 μm + PMA 25 ng/ml, highest concentration 5 μg/ml): appears to augment mitogen activity slightly
